Assays:
APP OSK mouse = assay: Behavior test: space reference memory of mouse, Morris water maze; assay type: in vivo; conditions: 1 month
Experimental: (§1) Male APP OSK mice (Tomiyama et al. J Neurosci. 2010; 30:4845-56) aged 11 months were prepared. APP OSK mice weigh about 30 g. The 60 APP OSK mice were classified into five groups A to E, each containing 12 mice. Separately, 12 wild-type mice (non-Tg littermate) of the same age in month were prepared.
(§2) Administration was performed without anesthesia using a rodent oral sonte for oral administration, a Pipetman (white tip) for nasal administration, and an injection syringe for subcutaneous administration.
The behavior test was performed by measuring space reference memory of mouse using a Morris water maze according to the method of Umeda et al. Brain 2016; 139:1568-86.

[1] = Impaired liver function: hepatic enzymes AST (GOT) and ALT (GPT) in serum; assay type: in vivo, mouse; conditions: 1 month
Experimental: as §1, §2
Blood was sampled from mice after end of the behavior test, and serum was separated from the blood to prepare a serum sample. Hepatic enzymes AST (GOT) and ALT (GPT) in the serum sample were measured, and the degree of impaired liver function by rifampicin was compared.

Aβ oligomers = molecular target: T1, Aβ oligomers (Homo sapiens, UniProt P05067, DEL693-693); assay type: in vivo, mouse
T1 construct: from tissue; host or cells: brain (hippocampus) of APP OSK transgenic mice
Experimental: as §1, §2
According to the procedure described in Umeda et al. Brain 2016; 139:1568-86, Aβ oligomers (Aβ oligomers are considered to cause phosphorylation of tau and reduction in synaptophysin), synaptophysin (marker protein of synapse), and phosphorylated tau were stained by immunohistological staining. For staining Aβ oligomers, 11A1 antibody (available from Immune-Biological laboratories Co., Ltd.) was used, and for staining synaptophysin, SVP-38 antibody (available from Sigma) was used. Mouse monoclonal PHF-1 antibody (anti p-Ser396/404-tau antibody, provided by Dr. Peter Davies, Albert Einstein College of Medicine) was used for staining phosphorylated tau. After staining, Aβ oligomers, synaptophysin, and phosphorylated tau were quantified by using NIH image-J.

Aβ = molecular target: T2, Aβ (Homo sapiens, UniProt P05067); assay: Formation of oligomers in vitro, Aβ; assay type: biochemical
T2 construct: Rifampicins have the action of suppressing formation of oligomers of amyloid β, tau, and α synuclein

tau = assay: Formation of oligomers in vitro, tau; assay type: biochemical
α synuclein = α synuclein (Homo sapiens, UniProt P37840); assay: Formation of oligomers in vitro, α synuclein; assay type: biochemical
AD model mouse = assay: Oral administration to AD model mouse in which Aβ accumulates; assay type: in vivo
FTD model mouse = assay: Oral administration to FTD model mouse in which tau accumulates; assay type: in vivo

CO[C@H]1/C=C/O[C@@]2(C)Oc3c(C)c(O)c4c(O)c(c(/C=N/N5CCN(C)CC5)c(O)c4c3C2=O)NC(=O)/C(C)=C\C=C\[C@H](C)[C@H](O)[C@@H](C)[C@@H](O)[C@@H](C)[C@H](OC(C)=O)[C@@H]1C [Rifampicin, 3-(4-methylpiperazinyliminomethyl)rifamycin SV]
Ameliorating effect on disturbance of memory (FIG. 1) (APP OSK mouse; Example 2: nasal, 0.05 mg/day): reached to the same level as in wild-type mouse | Ameliorating effect on disturbance of memory compared with oral administration (Comparative Example 1, […]) (APP OSK mouse; Example 2: nasal, dosage one-fifth (0.05 mg/day)): higher than the case of oral administration | Amelioration of disturbance of memory (FIG. 1) (APP OSK mouse; any of oral, nasal and subcutaneous administration, APP OSK mice): amelioration of disturbance of memory of APP OSK mouse was confirmed | Elevation of AST in comparison with CMC-administered APP OSK mouse ([1]; Example 2: nasal, 0.05 mg/day): Slight elevation | Change of ALT ([1]; any administration method (oral, nasal, subcutaneous)): no significant change was observed | Effect of reducing Aβ oligomers in comparison for the same dosage (FIG. 3) (Aβ oligomers; Example 1: nasal, […], versus oral and subcutaneous […]): highest | Quantification of Aβ oligomers (FIG. 3) (Aβ oligomers; any of oral (Comparative Example 1), nasal (Example 1, Example 2), subcutaneous (Reference Example 3)): reduced to at least the same level as that in wild-type mouse | Formation of oligomers of Aβ (Aβ): suppresses formation of oligomers | Formation of oligomers of tau (tau): suppresses formation of oligomers | Formation of oligomers of α synuclein (α synuclein): suppresses formation of oligomers | Cognitive function of mouse (AD model mouse): recovery of the cognitive function | Cognitive function of mouse (FTD model mouse): recovery of the cognitive function
